Data from patent US8580794B2 (AbbVie Inc., priority 2009, dated 2013).

Target: GST-Bc1-2 (Homo sapiens, UniProt P10415)
Assay: Time Resolved-Fluorescence Resonance Energy Transfer (TR-FRET) Bcl-2 binding assay with F-Bak peptide probe
Conditions: GST-Bcl-2 1 nM, F-Bak probe 100 nM, Tb-anti-GST 1 nM; '<' = below limit of detection; read-out: TR-FRET Bcl-2 Binding Ki

GST-Bc1-2, sequence (P10415 whole entry): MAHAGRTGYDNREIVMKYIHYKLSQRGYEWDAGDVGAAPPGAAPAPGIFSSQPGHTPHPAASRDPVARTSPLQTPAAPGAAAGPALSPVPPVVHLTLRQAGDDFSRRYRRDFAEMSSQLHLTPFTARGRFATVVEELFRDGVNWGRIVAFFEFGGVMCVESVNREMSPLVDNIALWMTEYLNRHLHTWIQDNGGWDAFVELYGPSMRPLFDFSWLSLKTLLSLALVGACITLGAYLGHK

First: CC1(C)CCC(CN2CCN(c3ccc(C(=O)NS(=O)(=O)c4ccc(OCC5(F)CCN(C6CC6)CC5)c([N+](=O)[O-])c4)c(Oc4cnc5[nH]ccc5c4)c3)CC2)=C(c2ccc(Cl)cc2)C1 [Example 173, 4-(4-{[2-(4-chlorophenyl)-4,4-dimethylcyclohex-1-en-1-yl]methyl}piperazin-1-yl)-N-({4-[(1-cyclopropyl-4-fluoropiperidin-4-yl)methoxy]-3-nitrophenyl}sulfonyl)-2-(1H-pyrrolo[2,3-b]pyridin-5-yloxy)benzamide]
Second: CC1(C)CCC(CN2CCN(c3ccc(C(=O)NS(=O)(=O)c4ccc(N[C@H]5CCN(CCF)C5)c([N+](=O)[O-])c4)c(Oc4cnc5[nH]ccc5c4)c3)CC2)=C(c2ccc(Cl)cc2)C1 [Example 181, 4-(4-{[2-(4-chlorophenyl)-4,4-dimethylcyclohex-1-en-1-yl]methyl}piperazin-1-yl)-N-[(4-{[(3S)-1-(2-fluoroethyl)pyrrolidin-3-yl]amino}-3-nitrophenyl)sulfonyl]-2-(1H-pyrrolo[2,3-b]pyridin-5-yloxy)benzamide]
The Ki of the first is lower: under 0.01 nM for the first, 0.017 nM for the second. The first binds more tightly here.

First: COc1ccc(CNc2ccc(S(=O)(=O)NC(=O)c3ccc(N4CCN(CC5=C(c6ccc(Cl)cc6)CC(C)(C)CC5)CC4)cc3Oc3cnc4[nH]ccc4c3)cc2[N+](=O)[O-])cc1 [Example 174, 4-(4-{[2-(4-chlorophenyl)-4,4-dimethylcyclohex-1-en-1-yl]methyl}piperazin-1-yl)-N-({4-[(4-methoxybenzyl)amino]-3-nitrophenyl}sulfonyl)-2-(1H-pyrrolo[2,3-b]pyridin-5-yloxy)benzamide]
Second: CC1(C)CCC(CN2CCN(c3ccc(C(=O)NS(=O)(=O)c4ccc(NCc5ccc(OC(F)F)cc5)c([N+](=O)[O-])c4)c(Oc4cnc5[nH]ccc5c4)c3)CC2)=C(c2ccc(Cl)cc2)C1 [Example 177, 4-(4-{[2-(4-chlorophenyl)-4,4-dimethylcyclohex-1-en-1-yl]methyl}piperazin-1-yl)-N-[(4-{[4-(difluoromethoxy)benzyl]amino}-3-nitrophenyl)sulfonyl]-2-(1H-pyrrolo[2,3-b]pyridin-5-yloxy)benzamide]
The Ki of the first is lower: under 0.01 nM for the first, 0.111 nM for the second.

CC1(C)CCC(CN2CCN(c3ccc(C(=O)NS(=O)(=O)c4ccc(NCc5cccc(OC(F)(F)F)c5)c([N+](=O)[O-])c4)c(Oc4cnc5[nH]ccc5c4)c3)CC2)=C(c2ccc(Cl)cc2)C1 [Example 175, 4-(4-{[2-(4-chlorophenyl)-4,4-dimethylcyclohex-1-en-1-yl]methyl}piperazin-1-yl)-N-[(3-nitro-4-{[3-(trifluoromethoxy)benzyl]amino}phenyl)sulfonyl]-2-(1H-pyrrolo[2,3-b]pyridin-5-yloxy)benzamide] and CC1(C)CCC(CN2CCN(c3ccc(C(=O)NS(=O)(=O)c4ccc(NCc5cccc(OC(F)F)c5)c([N+](=O)[O-])c4)c(Oc4cnc5[nH]ccc5c4)c3)CC2)=C(c2ccc(Cl)cc2)C1 [Example 187, 4-(4-{[2-(4-chlorophenyl)-4,4-dimethylcyclohex-1-en-1-yl]methyl}piperazin-1-yl)-N-[(4-{[3-(difluoromethoxy)benzyl]amino}-3-nitrophenyl)sulfonyl]-2-(1H-pyrrolo[2,3-b]pyridin-5-yloxy)benzamide] are within 1.5-fold of each other in Ki: 0.119 nM for the first, 0.08 nM for the second.

First: COc1cccc(CNc2ccc(S(=O)(=O)NC(=O)c3ccc(N4CCN(CC5=C(c6ccc(Cl)cc6)CC(C)(C)CC5)CC4)cc3Oc3cnc4[nH]ccc4c3)cc2[N+](=O)[O-])c1 [Example 176, 4-(4-{[2-(4-chlorophenyl)-4,4-dimethylcyclohex-1-en-1-yl]methyl}piperazin-1-yl)-N-({4-[(3-methoxybenzyl)amino]-3-nitrophenyl}sulfonyl)-2-(1H-pyrrolo[2,3-b]pyridin-5-yloxy)benzamide]
Second: CC1(C)CCC(CN2CCN(c3ccc(C(=O)NS(=O)(=O)c4ccc(NCc5cccc(O)c5)c([N+](=O)[O-])c4)c(Oc4cnc5[nH]ccc5c4)c3)CC2)=C(c2ccc(Cl)cc2)C1 [Example 186, 4-(4-{[2-(4-chlorophenyl)-4,4-dimethylcyclohex-1-en-1-yl]methyl}piperazin-1-yl)-N-({4-[(3-hydroxybenzyl)amino]-3-nitrophenyl}sulfonyl)-2-(1H-pyrrolo[2,3-b]pyridin-5-yloxy)benzamide]
The Ki of the first is 2-fold lower: 0.023 nM for the first, 0.047 nM for the second.

Going from CC1(C)CCC(CN2CCN(c3ccc(C(=O)NS(=O)(=O)c4ccc(NC5CCC6(CC5)OCCO6)c([N+](=O)[O-])c4)c(Oc4cnc5[nH]ccc5c4)c3)CC2)=C(c2ccc(Cl)cc2)C1 [Example 178, 4-(4-{[2-(4-chlorophenyl)-4,4-dimethylcyclohex-1-en-1-yl]methyl}piperazin-1-yl)-N-{[4-(1,4-dioxaspiro[4.5]dec-8-ylamino)-3-nitrophenyl]sulfonyl}-2-(1H-pyrrolo[2,3-b]pyridin-5-yloxy)benzamide] to CC(=O)N[C@H]1CC[C@H](Nc2ccc(S(=O)(=O)NC(=O)c3ccc(N4CCN(CC5=C(c6ccc(Cl)cc6)CC(C)(C)CC5)CC4)cc3Oc3cnc4[nH]ccc4c3)cc2[N+](=O)[O-])CC1 [Example 179, Trans-N-[(4-{[4-(acetylamino)cyclohexyl]amino}-3-nitrophenyl)sulfonyl]-4-(4-{[2-(4-chlorophenyl)-4,4-dimethylcyclohex-1-en-1-yl]methyl}piperazin-1-yl)-2-(1H-pyrrolo[2,3-b]pyridin-5-yloxy)benzamide], the Ki falls from 0.076 nM to under 0.01 nM. The second binds more tightly here.

Compared with CC1(C)CCC(CN2CCN(c3ccc(C(=O)NS(=O)(=O)c4ccc(N[C@@H]5CCN(CC(F)F)C5)c([N+](=O)[O-])c4)c(Oc4cnc5[nH]ccc5c4)c3)CC2)=C(c2ccc(Cl)cc2)C1 [Example 180, 4-(4-{[2-(4-chlorophenyl)-4,4-dimethylcyclohex-1-en-1-yl]methyl}piperazin-1-yl)-N-[(4-{[(3R)-1-(2,2-difluoroethyl)pyrrolidin-3-yl]amino}-3-nitrophenyl)sulfonyl]-2-(1H-pyrrolo[2,3-b]pyridin-5-yloxy)benzamide], CC1(C)CCC(CN2CCN(c3ccc(C(=O)NS(=O)(=O)c4ccc(N[C@H]5CCN(CC(F)F)C5)c([N+](=O)[O-])c4)c(Oc4cnc5[nH]ccc5c4)c3)CC2)=C(c2ccc(Cl)cc2)C1 [Example 182, 4-(4-{[2-(4-chlorophenyl)-4,4-dimethylcyclohex-1-en-1-yl]methyl}piperazin-1-yl)-N-[(4-{[(3S)-1-(2,2-difluoroethyl)pyrrolidin-3-yl]amino}-3-nitrophenyl)sulfonyl]-2-(1H-pyrrolo[2,3-b]pyridin-5-yloxy)benzamide] is higher in Ki: under 0.01 nM for the first, 0.068 nM for the second.

CC1(C)CCC(CN2CCN(c3ccc(C(=O)NS(=O)(=O)c4ccc(NCc5ccc(O)cc5)c([N+](=O)[O-])c4)c(Oc4cnc5[nH]ccc5c4)c3)CC2)=C(c2ccc(Cl)cc2)C1 [Example 185, 4-(4-{[2-(4-chlorophenyl)-4,4-dimethylcyclohex-1-en-1-yl]methyl}piperazin-1-yl)-N-({4-[(4-hydroxybenzyl)amino]-3-nitrophenyl}sulfonyl)-2-(1H-pyrrolo[2,3-b]pyridin-5-yloxy)benzamide] and CC1(C)CCC(CN2CCN(c3ccc(C(=O)NS(=O)(=O)c4ccc(NC5CCN(C6CC6)CC5)c(S(=O)(=O)C(F)(F)F)c4)c(Oc4cnc5[nH]ccc5c4)c3)CC2)=C(c2ccc(Cl)cc2)C1 [Example 190, 4-(4-{[2-(4-chlorophenyl)-4,4-dimethylcyclohex-1-en-1-yl]methyl}piperazin-1-yl)-N-({4-[(1-cyclopropylpiperidin-4-yl)amino]-3-[(trifluoromethyl)sulfonyl]phenyl}sulfonyl)-2-(1H-pyrrolo[2,3-b]pyridin-5-yloxy)benzamide] are within 1.5-fold of each other in Ki: 0.022 nM for the first, 0.026 nM for the second.
